According to patent US12304932B2, “PACAP stabilized peptide” (SENJU PHARMACEUTICAL CO., LTD., priority 2017, dated 2025):
Square brackets hold non-standard residues; d marks the D form. Peptide text beside a SMILES is read from it. * marks the point of attachment. Ala(1H-tetrazol-5-yl) = N[C@@H](Cc1nnn[nH]1)C(=O)O; Ms = CS(=O)(=O)*

Assays:
[1] = Peptide stability test 1: aqueous solution, phosphate buffer pH 7.0, stored at 40° C., HPLC conditions 1; format: physicochemical; settings: phosphate buffer pH 7.0, 40° C.; for survival rate after correction for water, 40° C., 1-month storage / survival rate after correction for water, 40° C., 2-month storage: 100 μM peptide; for survival rate after correction for water, 40° C., 2-month storage: 2 months
Method: Peptides 1 and 3 to 5 synthesized in Example 2 were weighed and dissolved in phosphate buffer (pH 7.0) to prepare 1.0 mM peptide solutions. The 1.0 mM peptide solutions were then diluted with phosphate buffer to 100 μM. After filtering with. Chromatdisk (product of Merck Millipore, Millex-GV, 0.22 μm), each filtrate was dispensed into an LC vial (Waters Deactivated Qsert Vial). The prepared peptide solutions were incubated for one month or 2 months in a 40° C. thermostatic bath to obtain stored samples. A simultaneously prepared sample among the peptide solutions that was not stored was used as a standard sample (initial sample). The standard sample and the stored samples were stored at −30° C. until sample analysis.
Using the total weight of the aqueous peptide solution and storage vessel as the specimen weight, measurements were recorded as the specimen weights before storage and the specimen weights after storage under different storage conditions. The empty weight of the storage vessel was also measured, and the moisture permeability was determined by the following formula.
After stirring the standard sample and the stored samples on a vortex mixer, each peptide solution was transferred to an HPLC vial (Deactivated Qsert vial by Waters Co.). Reverse-phase HPLC (HPLC system: Prominence by Shimadzu Corp.) was conducted under the conditions shown in Table 3 below for analysis of the_peptide solutions, and chromatograms were obtained.
Column: XSelect CSH C18 by Waters Co., 5 μm, 4.6×250 mm
Guard column: XSelect CSH C18 by Waters. Co., 5 μm, 4.6×20 mm Guard Cartridge
Detection wavelength: 220 nm
Mobile phase A: 0.1% formic acid in water
Mobile phase B: 0.1% formic acid in acetonitrile
Measuring time: 30 minutes
Measuring sample injection rate: 50 μL
Column temperature: 40° C.
Mobile phase delivery: The mixing ratio of mobile phase A and mobile phase B was varied as shown in Table 3 for linear concentration gradient control.
The peak area value for the peptide in the chromatogram was calculated, and the survival rate (survival rate before correction for water) was calculated using formula (2). The survival rate after correction for water was also calculated from the survival rate before correction for water using formula (3), taking into account the moisture permeability of the container.

[2] = Peptide stability tests 2 and 3: Tris buffer pH 7.0, stored at 60° C., HPLC conditions 2; format: physicochemical; settings: 100 μM peptide, Tris buffer pH 7.0, 60° C., 2 weeks
How it was run: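 Peptides at 100 μM in Tris buffer pH 7.0, held 1 or 2 weeks at 60° C. An unstored sample served as standard. Water-corrected survival rate by HPLC on C18 at 40° C., 0.1% formic acid water/acetonitrile gradient, 220 nm detection.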

Compound | survival rate after correction for water, 40° C., 1-month storage [1] | survival rate after correction for water, 40° C., 2-month storage [1] | stability in aqueous solution, in words [1] | survival rate after correction for water, 60° C., 2-week storage (Table 7-2) [2]
CC[C@H](C)[C@H](NC(=O)CNC(=O)[C@H](Cc1nnn[nH]1)NC(=O)[C@H](CO)NC(=O)[C@@H](N)Cc1c[nH]cn1)C(=O)N[C@@H](Cc1ccccc1)C(=O)N[C@H](C(=O)N[C@@H](CC(=O)O)C(=O)N[C@@H](CO)C(=O)N[C@@H](Cc1ccc(O)cc1)C(=O)N[C@@H](CO)C(=O)N[C@@H](CCCNC(=N)N)C(=O)N[C@@H](Cc1ccc(O)cc1)C(=O)N[C@@H](CCCNC(=N)N)C(=O)N[C@@H](CCCCN)C(=O)N[C@@H](CCC(N)=O)C(=O)N[C@@H](CCSC)C(=O)N[C@@H](C)C(=O)N[C@H](C(=O)N[C@@H](CCCCN)C(=O)N[C@@H](CCCCN)C(=O)N[C@@H](Cc1ccc(O)cc1)C(=O)N[C@@H](CC(C)C)C(=O)N[C@@H](C)C(=O)N[C@@H](C)C(=O)N[C@H](C(=O)N[C@@H](CC(C)C)C(N)=O)C(C)C)C(C)C)[C@@H](C)O [Peptide 3] | 76.5% | 60.7% | higher stability than peptide 1 | –
CC[C@H](C)[C@H](NC(=O)CNC(=O)[C@H](CC(=O)O)NC(=O)[C@H](CO)NC(=O)[C@@H](N)Cc1c[nH]cn1)C(=O)N[C@@H](Cc1ccccc1)C(=O)N[C@H](C(=O)N[C@@H](Cc1nnn[nH]1)C(=O)N[C@@H](CO)C(=O)N[C@@H](Cc1ccc(O)cc1)C(=O)N[C@@H](CO)C(=O)N[C@@H](CCCNC(=N)N)C(=O)N[C@@H](Cc1ccc(O)cc1)C(=O)N[C@@H](CCCNC(=N)N)C(=O)N[C@@H](CCCCN)C(=O)N[C@@H](CCC(N)=O)C(=O)N[C@@H](CCSC)C(=O)N[C@@H](C)C(=O)N[C@H](C(=O)N[C@@H](CCCCN)C(=O)N[C@@H](CCCCN)C(=O)N[C@@H](Cc1ccc(O)cc1)C(=O)N[C@@H](CC(C)C)C(=O)N[C@@H](C)C(=O)N[C@@H](C)C(=O)N[C@H](C(=O)N[C@@H](CC(C)C)C(N)=O)C(C)C)C(C)C)[C@@H](C)O [Peptide 4] (H-HSDGIFT[Ala(1H-tetrazol-5-yl)]SYSRYRKQMAVKKYLAAVL-NH2) | 42.8% | 28.2% | increased stability compared to peptide 1 | –
CC[C@H](C)[C@H](NC(=O)CNC(=O)[C@H](Cc1nnn[nH]1)NC(=O)[C@H](CO)NC(=O)[C@@H](N)Cc1c[nH]cn1)C(=O)N[C@@H](Cc1ccccc1)C(=O)N[C@H](C(=O)N[C@@H](Cc1nnn[nH]1)C(=O)N[C@@H](CO)C(=O)N[C@@H](Cc1ccc(O)cc1)C(=O)N[C@@H](CO)C(=O)N[C@@H](CCCNC(=N)N)C(=O)N[C@@H](Cc1ccc(O)cc1)C(=O)N[C@@H](CCCNC(=N)N)C(=O)N[C@@H](CCCCN)C(=O)N[C@@H](CCC(N)=O)C(=O)N[C@@H](CCSC)C(=O)N[C@@H](C)C(=O)N[C@H](C(=O)N[C@@H](CCCCN)C(=O)N[C@@H](CCCCN)C(=O)N[C@@H](Cc1ccc(O)cc1)C(=O)N[C@@H](CC(C)C)C(=O)N[C@@H](C)C(=O)N[C@@H](C)C(=O)N[C@H](C(=O)N[C@@H](CC(C)C)C(N)=O)C(C)C)C(C)C)[C@@H](C)O [Peptide 5] (H-HS[Ala(1H-tetrazol-5-yl)]GIFT[Ala(1H-tetrazol-5-yl)]SYSRYRKQMAVKKYLAAVL-NH2) | 94.7% | 85.6% | further increased stability over peptide 3 and peptide 4 | –
CC[C@H](C)[C@H](NC(=O)[C@H](C)NC(=O)[C@H](Cc1nnn[nH]1)NC(=O)[C@H](CO)NC(=O)[C@H](Cc1c[nH]cn1)NS(C)(=O)=O)C(=O)N[C@@H](Cc1ccccc1)C(=O)N[C@H](C(=O)N[C@@H](Cc1nnn[nH]1)C(=O)N[C@@H](CO)C(=O)N[C@@H](Cc1ccc(O)cc1)C(=O)N[C@@H](CO)C(=O)N[C@@H](CCCNC(=N)N)C(=O)N[C@@H](Cc1ccc(O)cc1)C(=O)N[C@@H](CCCNC(=N)N)C(=O)N[C@@H](CCCCN)C(=O)N[C@@H](CCC(N)=O)C(=O)N[C@@H](CC(C)C)C(=O)N[C@@H](C)C(=O)N[C@H](C(=O)N[C@@H](CCCCN)C(=O)N[C@@H](CCCCN)C(=O)N[C@@H](Cc1ccc(O)cc1)C(=O)N[C@@H](CC(C)C)C(=O)N[C@@H](C)C(=O)N[C@@H](C)C(=O)N[C@H](C(=O)N[C@@H](CC(C)C)C(N)=O)C(C)C)C(C)C)[C@@H](C)O [Peptide 30] (Ms-HS[Ala(1H-tetrazol-5-yl)]AIFT[Ala(1H-tetrazol-5-yl)]SYSRYRKQLAVKKYLAAVL-NH2) | – | – | – | 92.2%
CC[C@H](C)[C@H](NC(=O)[C@H](C)NC(=O)[C@H](Cc1nnn[nH]1)NC(=O)[C@H](CO)NC(=O)[C@H](Cc1c[nH]cn1)NS(C)(=O)=O)C(=O)N[C@@H](Cc1ccccc1)C(=O)N[C@H](C(=O)N[C@@H](Cc1nnn[nH]1)C(=O)N[C@@H](CO)C(=O)N[C@@H](Cc1ccc(O)cc1)C(=O)N[C@@H](CO)C(=O)N[C@@H](CCCNC(=N)N)C(=O)N[C@@H](Cc1ccc(O)cc1)C(=O)N[C@@H](CCCNC(=N)N)C(=O)N[C@@H](CCCCN)C(=O)N[C@@H](CCC(N)=O)C(=O)N[C@@H](C)C(=O)N[C@@H](C)C(=O)N[C@H](C(=O)N[C@@H](CCCCN)C(=O)N[C@@H](CCCCN)C(=O)N[C@@H](Cc1ccc(O)cc1)C(=O)N[C@@H](CC(C)C)C(=O)N[C@@H](C)C(=O)N[C@@H](C)C(=O)N[C@H](C(=O)N[C@@H](CC(C)C)C(N)=O)C(C)C)C(C)C)[C@@H](C)O [Peptide 31] (Ms-HS[Ala(1H-tetrazol-5-yl)]AIFT[Ala(1H-tetrazol-5-yl)]SYSRYRKQAAVKKYLAAVL-NH2) | – | – | – | 90.1%
CC[C@H](C)[C@H](NC(=O)[C@H](C)NC(=O)[C@H](Cc1nnn[nH]1)NC(=O)[C@H](CO)NC(=O)[C@H](Cc1c[nH]cn1)NC(C)=O)C(=O)N[C@@H](Cc1ccccc1)C(=O)N[C@H](C(=O)N[C@@H](Cc1nnn[nH]1)C(=O)N[C@@H](CO)C(=O)N[C@@H](Cc1ccc(O)cc1)C(=O)N[C@@H](CO)C(=O)N[C@@H](CCCNC(=N)N)C(=O)N[C@@H](Cc1ccc(O)cc1)C(=O)N[C@@H](CCCNC(=N)N)C(=O)N[C@@H](CCCCN)C(=O)N[C@@H](CCC(N)=O)C(=O)N[C@@H](C)C(=O)N[C@@H](C)C(=O)N[C@H](C(=O)N[C@@H](CCCCN)C(=O)N[C@@H](CCCCN)C(=O)N[C@@H](Cc1ccc(O)cc1)C(=O)N[C@@H](CC(C)C)C(=O)N[C@@H](C)C(=O)N[C@@H](C)C(=O)N[C@H](C(=O)N[C@@H](CC(C)C)C(N)=O)C(C)C)C(C)C)[C@@H](C)O [Peptide 32] (Ac-HS[Ala(1H-tetrazol-5-yl)]AIFT[Ala(1H-tetrazol-5-yl)]SYSRYRKQAAVKKYLAAVL-NH2) | – | – | – | 88.7%
CC[C@H](C)[C@H](NC(=O)[C@H](C)NC(=O)[C@H](Cc1nnn[nH]1)NC(=O)[C@H](C)NC(=O)[C@H](Cc1c[nH]cn1)NC(C)=O)C(=O)N[C@@H](Cc1ccccc1)C(=O)N[C@H](C(=O)N[C@@H](Cc1nnn[nH]1)C(=O)N[C@@H](CO)C(=O)N[C@@H](Cc1ccc(O)cc1)C(=O)N[C@@H](CO)C(=O)N[C@@H](CCCNC(=N)N)C(=O)N[C@@H](Cc1ccc(O)cc1)C(=O)N[C@@H](CCCNC(=N)N)C(=O)N[C@@H](CCCCN)C(=O)N[C@@H](CCC(N)=O)C(=O)N[C@@H](C)C(=O)N[C@@H](C)C(=O)N[C@H](C(=O)N[C@@H](CCCCN)C(=O)N[C@@H](CCCCN)C(=O)N[C@@H](Cc1ccc(O)cc1)C(=O)N[C@@H](CC(C)C)C(=O)N[C@@H](C)C(=O)N[C@@H](C)C(=O)N[C@H](C(=O)N[C@@H](CC(C)C)C(N)=O)C(C)C)C(C)C)[C@@H](C)O [Peptide 33] (Ac-HA[Ala(1H-tetrazol-5-yl)]AIFT[Ala(1H-tetrazol-5-yl)]SYSRYRKQAAVKKYLAAVL-NH2) | – | – | – | 85.3%
CC[C@H](C)[C@H](NC(=O)[C@H](C)NC(=O)[C@H](Cc1nnn[nH]1)NC(=O)[C@H](CO)NC(=O)[C@H](Cc1c[nH]cn1)NC(C)=O)C(=O)N[C@@H](Cc1ccccc1)C(=O)N[C@H](C(=O)N[C@@H](Cc1nnn[nH]1)C(=O)N[C@@H](CO)C(=O)N[C@@H](Cc1ccc(O)cc1)C(=O)N[C@@H](CO)C(=O)N[C@@H](CCCNC(=N)N)C(=O)N[C@@H](Cc1ccc(O)cc1)C(=O)N[C@@H](CCCNC(=N)N)C(=O)N[C@@H](CCCCN)C(=O)N[C@@H](C)C(=O)N[C@@H](C)C(=O)N[C@@H](C)C(=O)N[C@H](C(=O)N[C@@H](CCCCN)C(=O)N[C@@H](CCCCN)C(=O)N[C@@H](Cc1ccc(O)cc1)C(=O)N[C@@H](CC(C)C)C(=O)N[C@@H](C)C(=O)N[C@@H](C)C(=O)N[C@H](C(=O)N[C@@H](CC(C)C)C(N)=O)C(C)C)C(C)C)[C@@H](C)O [Peptide 34] (Ac-HS[Ala(1H-tetrazol-5-yl)]AIFT[Ala(1H-tetrazol-5-yl)]SYSRYRKAAAVKKYLAAVL-NH2) | – | – | – | 96.9%
